Results reported in patent US7582786B2, “Synthetic catalytic free radical scavengers useful as antioxidants for prevention and therapy of disease” (Eukarion Inc., priority 1996, dated 2009).

Tests used:
[1] = SOD activity, inhibition of cytochrome C reduction by xanthine plus xanthine oxidase (Example 1); type: biochemical; settings: Example 1, cytochrome C reduction
Method: The SOD activity of the compounds was determined by evaluating the inhibition of the reduction of cytochrome C produced by the oxygen free radical generating system, xanthine plus xanthine oxidase. Cytochrome C reduction is monitored spectrophotometrically at 550 nm according to the method described in Darr et al. (1987) Arch. Biochem. Biophys. 258: 351, incorporated herein by reference. The concentration of xanthine oxidase is adjusted such that it produces a rate of reduction of cytochrome C at 550 nm of 0.025 absorbance unit per minute. Under these conditions, the amount of SOD activity required to inhibit the rate of cytochrome C reduction by 50 percent (i.e., to a rate of 0.0125 absorbance unit per minute) is defined as one unit of activity. Salen-metal complexes are identified as antioxidants if they have at least 0.1 unit of activity at a concentration of 1 mM under these standard assay conditions.

[2] = Catalase activity, decomposition of hydrogen peroxide monitored at 240 nm (Example 1); type: biochemical; settings: Example 1, H2O2 decomposition at 240 nm
Method: Catalase activity was measured using a spectrophotometric method in which the decomposition of hydrogen peroxide is monitored at 240 nm according to the method of Aebi et al. (1984) Methods Enzymol. 105: 121, incorporated herein by reference. One unit of catalase activity is defined as the amount of enzyme (or salen-metal complex) required to decompose 1 μmole of hydrogen peroxide in one minute.

[3] = SOD activity, xanthine/xanthine oxidase with cytochrome C as acceptor (Example 2); type: biochemical; settings: relative to C7 (C7 = 100)
Method in brief: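 Superoxide was generated by 120 µM xanthine and 0.2 U/ml xanthine oxidase in 50 mM sodium phosphate pH 7.8 at 27 °C, with salen manganese compounds at ≥4 concentrations in duplicate.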

[4] = Catalase activity, conversion of H2O2 to oxygen, polarographic oxygen electrode (Example 2); type: biochemical
Method in brief: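 Clark-type oxygen electrode at 25 °C in 50 mM sodium phosphate pH 8.1, 0.9% NaCl, with 10 μM salen-manganese complex and 10 mM H2O2. Initial rates from slope of first ~5 s, corrected for H2O2-alone rate; endpoint O2 as maximal minus pre-substrate baseline.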

[5] = Peroxidase activity, H2O2-dependent oxidation of ABTS (Example 2); type: biochemical; settings: for Peroxidase rate: 10 μM salen manganese complex, 0.2 mM H2O2; for Peroxidase: relative to C7 (C7 = 100)
Method in brief: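 ABTS oxidation by salen manganese complex (10 μM) with 0.2 mM H2O2 in 50 mM sodium phosphate pH 8.1 (or pH 6.0/7.1 where indicated), 0.9% NaCl, 0.5 mM ABTS, 27±0.2 °C. Oxidized ABTS read spectrophotometrically at 740 or 500 nm and quantified from Δε740 20,300 or Δε500 3400 M^−1cm^−1.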

[6] = system: brain homogenates; test: Iron-induced lipid peroxidation in brain homogenates (MDA); type: biochemical, rat
Method: Lipid peroxidation was induced by incubating a mixture consisting of 0.25 ml homogenate, 0.25 ml ASCF with test compounds, and 10 μM FeCl2 for 1 hr at 35° C. under an atmosphere equilibrated with O2:CO2(95:5). Following the incubation, 0.1 ml of the sample was extracted with trichloroacetic acid and analyzed for thiobarbituric acid reactive material as described previously, using authentic malonyldialdehyde (MDA) as a standard.

[7] = system: Human dermal fibroblasts (HF cells); test: Cell protection assay, tert-butylhydroperoxide (t-BHP) toxicity, XTT; type: cell-based; settings: for Cell viability, absorbance at 490 nm uncorrected for blank: t-BHP 0.5 mM
Method: (§1) Human dermal fibroblasts (HF cells) were obtained from the American type tissue Culture Collection at passage 1 and cultured and propagated in a medium (HF medium) consisting of Dulbecco's Modified Eagle's Medium with 4.5 g/l D-glucose, 10% calf serum 4 mM glutamine, 50 units/ml penicillin, and 50 μg/ml streptomycin in a 37° C. humidified incubator equilibrated with 5% CO2. Cells were used at passages 5 or 6 for experiments. For cell protection assays, HF cells were seeded at a density of about 15,000 cells per cm2 onto 96-well culture plates and allowed to grow to confluence. To assess protection tert-butylhydroperoxide (t-BHP) toxicity, confluent cell layers were first treated with the indicated concentrations of test compounds dissolved in HF medium for 18 hr. The medium was then replaced with fresh medium containing test compounds and 0.5 mM tert-butylhydroperoxide (t-BHP) and cells were incubated for another 18 hr. The medium was then removed and replaced with fresh HF medium (100 μl per well) without test compounds or t-BHP. Fifty μl of XTT reagent (Boeringer Mannheim, Inc.), prepared as described by the manufacturer, was then added to each well and the plates returned to the incubator. After 2 hr., the absorbance at 490 nm was measured in a BioRad (Richmond, Calif.) Model 3550 plate-reader, using a reference wavelength of 655 nm. Control cells that had not been exposed to test compounds or toxic agents were included among the samples treated with XTT reagent. Absorbance measurements for blank wells, containing HF medium and XTT reagent but no cells, were also determined. To analyze protection from glucose/glucose oxidase toxicity, confluent cell layers were incubated with HF medium containing glucose oxidase (0.019 units/ml) along with test compounds, as indicated, for 18 hr in the tissue culture incubator. Fresh HF medium was then added and cell viability assessed using the XTT reagent as described above. For both these models, concentrations of toxic agents were selected that were reproducibly completely lethal. Cytotoxicity assessments were routinely confirmed by visual inspection of the cell layers prior to addition of the XTT reagent.

[8] = system: Human dermal fibroblasts (HF cells); test: Cell protection assay, glucose/glucose oxidase toxicity, XTT; type: cell-based
Method: as §1
Catalase and peroxidase activities were assayed as described in Example 2. Catalase assays contained 10 μM salen-manganese complex and 10 mM hydrogen peroxide. Peroxidase assays contained 10 μM salen-manganese complex and 0.2 mM hydrogen peroxide. Glucose-glucose oxidase toxicity assays were performed using human dermal fibroblasts as described in Example 2.

[9] = Peroxidase activity with t-BHP as substrate, ABTS oxidation; type: biochemical
Method: Peroxidase activity was assayed by monitoring the hydrogen peroxide-dependent oxidation of 2,2′-azino-bis(3-ethylbenzthiazoline-6) sulfonic acid (ABTS) spectrophotometrically. Standard assay mixtures consisted of 50 mM sodium phosphate, pH 8.1, 0.9% sodium chloride, 0.5 mM ABTS, and H2O2 and salen manganese complex as indicated. Where indicated, 50 mM sodium phosphate buffers of pH 6.0 or pH 7.1 were substituted. Assays were conducted at 27±0.2° C. ABTS oxidation was monitored at 740 or 500 nm to eliminate interference by the salen manganese complexes, many of which absorb in the vicinity of the λmax of oxidized ABTS, and to avoid absorbance values that exceeded the linear range of the spectrophotometer. The amount of oxidized ABTS was estimated using an Δε740 of 20,300 M^−1cm^−1 or an Δε500 of 3400 M^−1cm^−1 calculated based upon the published molar extinction coefficient oat 405 nm (36,800).
(In comparison, horseradish peroxidase utilized t-BHP with an ABTS oxidation rate that was about 5.4% of the rate with H2O2).

[10] = 10 μM salen manganese complex, 10 mM H2O2

| Molecule | SOD [3] | Catalase rate [4, 10] [μM O2/min] | Endpoint [4, 10] [maximal μM O2] | Catalase endpt. ([4]; relative to C7 (C7 = 100)) | Catalase rate ([4]; relative to C7 (C7 = 100)) | Peroxidase rate [5] [μM ABTS oxidized/min] | Peroxidase [5] | MDA levels, percent of control ([6]; 1 μM) [%] | MDA levels, percent of control ([6]; 5 μM) [%] | MDA levels, percent of control ([6]; 10 μM) [%] | MDA levels, percent of control ([6]; 25 μM) [%] | Cell viability, absorbance at 490 nm uncorrected for blank ([7]; 2.5 μM) | Cell viability, absorbance at 490 nm uncorrected for blank ([7]; 5 μM) | Cell viability, absorbance at 490 nm uncorrected for blank ([7]; 10 μM) | Cell viability, absorbance at 490 nm uncorrected for blank ([7]; 20 μM) | Cell viability, absorbance at 490 nm uncorrected for blank ([7]; 40 μM) | Cell viability, absorbance at 490 nm uncorrected for blank ([7]; 80 μM) | protection against glucose and glucose oxidase (in words) [8] | synergistic toxicity with t-BHP ([7]; 80 μM) | peroxidase rate with t-BHP relative to C32 [9] | other results |
| --- | --- | --- | --- | --- | --- | --- | --- | --- | --- | --- | --- | --- | --- | --- | --- | --- | --- | --- | --- | --- | --- |
| CC(C)(C)c1cc2c(c(C(C)(C)C)c1)[O][Mn]([Cl])[O]c1c(cc(C(C)(C)C)cc1C(C)(C)C)C=NC1CCCCC1N=C2 (centres unmarked) [Compound C10] | – | – | – | – | – | – | – | – | – | – | – | – | – | – | – | – | – | – | – | – | SOD Activity [1]: 69 units/mM; Catalase Activity [2]: 179 units/mM |
| COc1ccc2c(c1)[O][Mn]([O]C(C)=O)[O]c1cc(OC)ccc1C=NCCN=C2 [Compound C33] | 68 | 53.9 ± 8.7 | 12.6 ± 1.3 | 44 | 38 | 0.8 ± 0.2 | 4 | 98 | 38 | 16 | 7 | 0.27 ± 0.01 | 0.27 ± 0.01 | 1.35 ± 0.08 | 1.44 ± 0.08 | 1.50 ± 0.11 | 1.36 ± 0.02 | about equally as effective as C7 | – | – | – |
| COc1ccc2c(c1)[O][Mn]([Cl])[O]c1cc(OC)ccc1C=NCCN=C2 [Compound C34] | 70 | 66.4 ± 13.9 | 11.9 ± 0.2 | 44 | 46 | 0.8 ± 0.2 | 4 | 97 | 30 | 12 | 6 | 0.27 ± 0.01 | 0.27 ± 0.01 | 1.20 ± 0.12 | 1.46 ± 0.08 | 1.48 ± 0.08 | 1.54 ± 0.08 | about equally as effective as C7 | – | – | – |
| CC(=O)[O][Mn]1[O]c2c(F)cccc2C=NCCN=Cc2cccc(F)c2[O]1 [Compound C36] | 104 | 167.5 ± 9.8 | 27.9 ± 2.3 | 104 | 128 | 22.2 ± 0.8 | 129 | 95 | 37 | 16 | 4 | 0.28 ± 0.01 | 0.29 ± 0.01 | 1.13 ± 0.05 | 1.44 ± 0.04 | 1.28 ± 0.45 | 0.79 ± 0.34 | about equally as effective as C7 | possible synergistic toxicity | about twice as fast as C32 | – |
| Fc1cccc2c1[O][Mn]([Cl])[O]c1c(F)cccc1C=NCCN=C2 [Compound C37] | 115 | 182.6 ± 26.8 | 28.3 ± 0.5 | 104 | 117 | 23.3 ± 0.6 | 92 | 94 | 43 | 25 | 8 | 0.28 ± 0.01 | 0.28 ± 0.01 | 1.20 ± 0.06 | 1.42 ± 0.05 | 1.53 ± 0.02 | 1.20 ± 0.02 | about equally as effective as C7 | possible synergistic toxicity | about twice as fast as C32 | – |
| horseradish peroxidase | – | – | – | – | – | – | – | – | – | – | – | – | – | – | – | – | – | – | – | – | rate of ABTS oxidation ([5]; 13.2 units/ml, pH 8.1, 1 mM H2O2): 99.3 µM/min; ABTS oxidation rate with t-BHP, percent of rate with H2O2 ([9]; 1 mM t-BHP): about 5.4% |
